This is an account of results in patent US8178568B2, “Sulfone compounds which modulate the CB2 receptor” (Boehringer Ingelheim International GmbH, priority 2008, dated 2012).

pEC50: −log10 of the molar value.

T1 sequence (P34972 whole entry): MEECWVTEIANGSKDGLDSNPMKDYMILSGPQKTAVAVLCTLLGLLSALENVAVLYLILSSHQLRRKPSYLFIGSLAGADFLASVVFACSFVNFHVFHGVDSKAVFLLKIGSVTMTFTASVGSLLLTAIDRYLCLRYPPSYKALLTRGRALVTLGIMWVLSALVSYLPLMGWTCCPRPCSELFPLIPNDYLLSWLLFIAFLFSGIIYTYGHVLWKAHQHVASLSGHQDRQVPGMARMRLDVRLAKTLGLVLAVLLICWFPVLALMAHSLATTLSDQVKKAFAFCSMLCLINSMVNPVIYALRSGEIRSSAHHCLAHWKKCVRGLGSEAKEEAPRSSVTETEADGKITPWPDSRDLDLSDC

One test concerns the target T1, human CB2R (Homo sapiens, UniProt P34972).
T1 construct: host or cells: CHO cells
Kind of test: CB2R mediated modulation of cAMP synthesis. The format is cell-based.
Details: not given
As for the experimental part:
B. CB2R Mediated Modulation of cAMP Synthesis:
Compounds of the invention were evaluated for their CB2 agonist or inverse agonistic activity in accordance with the following experimental method.
CHO cells expressing human CB2R (Euroscreen) were plated at a density of 5000 cells per well in 384 well plates and incubated overnight at 37° C. After removing the media, the cells were treated with test compounds diluted in stimulation buffer containing 1 mM IBMX, 0.25% BSA and 10 uM Forskolin. The assay was incubated for 30 minutes at 37° C. Cells were lysed and the cAMP concentration was measured using DiscoverX-XS cAMP kit, following the manufacturer's protocol. In this setting, agonists will decrease forskolin induced production of cAMP while inverse agonists will further increase forskolin induced production of cAMP. EC50 of agonists were calculated as follows. The maximal amount of cAMP produced by forskolin compared to the level of cAMP inhibited by 1 uM CP55940 is defined as 100%. The EC50 value of each test compound was determined as the concentration at which 50% of the forskolin-stimulated cAMP synthesis was inhibited. Data was analyzed using a four-parameter logistic model. (Model 205 of XLfit 4.0).
In the case of `CC(C)(C)c1cc(N2CC[C@@](C)(S(=O)(=O)c3ccc(Cl)cc3)C2=O)on1`, the negative-log EC50 (pEC50) (commonly −log10 of the EC50, conventionally taken in molar units) was 7.43.
On the same count and under the same terms, the value for `CC(C)(C)c1cc(NC(=O)C(C)(CCO)S(=O)(=O)c2ccc(Cl)cc2)on1` (stereo not drawn) was 7.77; that for `CC(C)(C)c1cc(N2CCC(C)(S(=O)(=O)c3ccc(Cl)cc3)C2=O)no1` (stereo not drawn) was 7.85; that for `CC(C)(C)c1cc(NC(=O)C(C)(CCO)S(=O)(=O)C2CCOCC2)on1` (stereo not drawn) was 7.68.
In turn, `CC(C)(C)c1cc(N2CCC(C)(S(=O)(=O)c3ccc(Cl)cc3)C2=O)on1` (stereo not drawn) showed a pEC50 of 7.60.
The compound `CC(C)(C)c1cc(N2CC[C@](C)(S(=O)(=O)c3ccc(Cl)cc3)C2=O)on1` gave a pEC50 of 7.60.

The same test, now with this note: Table III, formula I compounds; CHO cells expressing human CB2R, inhibition of forskolin-stimulated cAMP synthesis; read-out: CB2 EC50.
Take `CC(C)(C)c1cc(N2CCC(C)(S(=O)(=O)C3CCOCC3)C2=O)on1` (stereo not drawn): the pEC50 was 6.66.
Turning to `CC1(S(=O)(=O)c2ccc(Cl)cc2)CCN(c2nnc(-c3ccccc3)[nH]2)C1=O` (stereo not drawn), the pEC50 is 7.70.

The test is the same for the next values; noted with them: Table VI, formula IB compounds; CHO cells expressing human CB2R, inhibition of forskolin-stimulated cAMP synthesis; read-out: CB2 EC50.
Take `O=C(Nc1nc(-c2ccccc2)ns1)C(CCO)S(=O)(=O)c1ccc(Cl)cc1` (stereo not drawn): the negative-log EC50 (pEC50) is 6.26.
